Measurements from patent publication US6605115B1, “Method and composition for inhibiting cardiovascular cell proliferation” (Board of Trustees of the Leland Stanford Junior University, priority 1999, dated 2003).

Assays:
cytokine-stimulated VSMC = assay: Effect of arginine oligomers on NO production in cytokine-stimulated VSMC (NO2, Griess); assay type: cell-based, rat
Experimental: Rat VSMCs were prepared from the media layer of thoracic aorta of Sprague-Dawley rats by the explant method. The cells were cultured in Dulbecco's modified Eagle's medium (DMEM, Gibco BRL, Gaithersburg, Md.) containing 10% fetal calf serum, 100 U/ml penicillin and 100 μg/ml streptomycin at 37° C. under a humidified atmosphere containing 5% CO2. After subconfluent growth, cells were cultured with MEM Select Amine Kit (Gibco BRL, Gaithersburg, Md.) to be treated by specific concentrations of extracellular free L-arginine. Experiments were performed using cultured cells at passage levels of 5-10.
Extracellular NO production was measured as its stable oxidative metabolite, nitrite (NO2). At the end of each incubation, samples of the medium (80 μl) were collected, and NO2 measurement was performed using the Griess reaction facilitated by a commercial calorimetric assay (Cayman Chemical, Ann Arbor, Mich.). Values of NO2 production were corrected with relative cell count assessed by a cell proliferation kit II (XTT) (Boeheringer Mannheim, Germany).
Subconfluent cells were pre-incubated with medium containing 100 μM arginine for 24 hours. The cells were then transiently pretreated with each arginine polymer for 30 minutes. After translocation, the cells were incubated with a mixture of IFN-γ (100 U/ml) and LPS (100 μg/ml) in medium containing 100 μM L-arginine for another 24 hours. In some experiments, L-NMMA (1 mM), a nitric oxide synthase inhibitor, was added to the medium.

[1] = system: coronary vessels of transplanted PVG rat donor hearts; assay: Heart transplant study (graft coronary artery disease, GCAD); assay type: in vivo; conditions: for % affected vessels / % luminal narrowing / I/M ratio: intracoronary 50 uM, 30 minutes
Experimental: In this study, PVG rat donor hearts (n=48) were transplanted heterotopically into the abdomen of ACI recipients. Donor hearts received either intracoronary PBS or intracoronary 50 uM (L)-arginine polymer (L-R5 or L-R9) for 30 minutes. (D-arginine polymers were not included in this study.) Each of these groups was further divided into 60 and 90 day study animals (n=6 each). Percent luminal narrowing, intima to media ratio (I/M), and percent affected vessels were determined as described in Example 11, below. Transfection efficiency was determined by infusing biotinylated R5 and R9, as in the preceding studies, and calculating the percentage of biotin positive nuclei divided by total number of nuclei.
PVG rat donor hearts (n=48) were transplanted heterotopically into the abdomen of ACI recipients. Donor hearts received either intracoronary PBS or intracoronary 50 uM (L)-arginine polymer (L-R5 or L-R9) for 30 minutes. Each group was further divided into 60 and 90 day study animals (n=6 each). Tissue cross sections (5μ) were stained with EVG (Elastica-van Gieson) preparation, and vessels were scored using computerized morphometry for analysis of % luminal narrowing, intima to media ratio (I/M), and % affected vessels. Transfection efficiency was determined by infusing biotinylated R5 and R9, as in preceding examples, and calculating the percentage of biotin positive nuclei divided by total number of nuclei. Results are described in Section IV C, above.

[2] = system: rabbit carotid artery segment; assay: Ex vivo translocation study, carotid artery segments; set-up: species or system New Zealand white rabbits
Experimental: After incubation with biotin labeled oligomer, vascular segments were washed, then frozen in OCT compound (Miles Scientific). Frozen sections, 5 μm thick, were fixed with acetone for 10 minutes. Internalized biotin was detected using the staining procedure described in Example 2. Methyl green was used for nuclear counter staining.
To quantify the efficiency of nuclear translocation, the numbers of both DAB positive nuclei and total nuclei were counted in the intima and media separately at ×400 magnification with a video image analysis system (Automatrix). The frequency of nuclear translocation was expressed as the percent staining of nuclei, defined as the ratio of the number of DAB positive nuclei to that of all nuclei, in the intima and media. Each protocol was repeated 4 times.
Both carotid artery and jugular vein segments of male New Zealand white rabbits were used. To test the dose dependence of R7 translocation, vascular segments were incubated for 30 minutes with either bL-R7 or bD-R7 solution (0.1, 1.0, and 10.0 μM) in serum-free Dulbecco's minimal essential medium (DMEM) (Gibco BRL). To test the incubation time dependence, vascular segments were incubated with 10.0 μM of biotin labeled R7 solution for 10 seconds, 60 seconds, 5 minutes, 10 minutes, and 30 minutes. Furthermore, to determine the ability of R7 to penetrate through the vessel wall, vascular segments were ligated one end, R7 containing medium was instilled, and the other end ligated so as to expose only the luminal surface to R7. The luminal surface of the vascular segment was exposed to bL-R7 or bD-R7 (10.0 μM) for 30 minutes. To test the temperature dependence of translocation, vascular segments were incubated with 10.0 μM of biotin labeled R7 solutions at 37° C. or 4° C. To determine the disappearance time course of translocated R7, vascular segments were incubated with biotin labeled R7 solutions (10.0 μM) at 37° C. for 30 minutes, and then reincubated in DMEM with 10% FBS up to 5 days. Vascular segments were harvested at 1, 2 and 5 days after initial incubation.

[3] = system: human umbilical vein endothelial cells (ECV304); assay: In vitro translocation of biotin-labeled peptides into endothelial cells; assay type: cell-based; conditions: endothelial cells
Experimental: Spontaneously transformed human umbilical vein endothelial cells (ECV304, ATCC) were cultured in medium M199 (Irvine Scientific) containing 10% fetal bovine serum (FBS), 100 IU/ml penicillin and 100 μg/ml of streptomycin (Gibco BRL). Confluent cells were washed and placed in serum-free medium. After 2 hours, the cells were incubated in presence of biotin labeled peptides, as bL-R7, or bD-R7, or bL-K7 (0.1, 1.0, and 10.0 μM). After 30 minutes of incubation, cells were washed 3 times with phosphate-buffered saline (PBS), fixed in ethanol/acetone; washed in PBS; incubated for 30 minutes with peroxidase suppressor (ImmunoPure, Pierce) to block endogenous peroxidase activity; and then incubated with 5 μg/ml of horse-radish peroxidase (HRP) conjugated strepavidin (Pierce) for 30 minutes. Substrate of HRP, diaminobenzidine (DAB, Sigma), was added to the cells. The reaction was terminated by washing in distilled water after a 60-second incubation. This experiment was repeated 3 times.

[4] = system: rat vascular smooth muscle cells (VSMC); assay: Translocation of biotin-labeled peptides into cultured VSMC (HRP-streptavidin/DAB staining); assay type: cell-based; conditions: for internalized biotin signal (staining): 30 minutes
Experimental: In the studies described below, transmembrane transport and cellular uptake of oligomers was assessed by incubating cells or tissue with biotin-oligomer conjugates, followed by treatment with horseradish peroxidase (HRP)-conjugated streptavidin and subsequent incubation with DAB (3,3′-diaminobenzidine), a substrate of the enzyme which produces a highly colored product.
Cultured VSMC (vascular smooth muscle cells) were treated, as described in Example 2, with biotinylated oligomers of arginine or lysine. After incubation, the cells were treated with HRP-streptavidin conjugate, then with DAB. Staining by the oxidation product was observed using light microscopy.
Rat VSMCs were grown on glass microscope slide chambers (Nunc Inc., Naperville, Ill.). Subconfluent cells were washed and placed in serum-free medium. After 2 hours, cells were treated with bR7, or bK7 (0.1 μM, 1.0 μM, 10 μM), at 37° C. for 30 minutes. To assess the role of endocytosis in cellular uptake of the peptides, experiments were performed at 4° C., and also in the presence of sodium azide (1.0%) for 30 minutes prior to exposure to the peptides. To assess the involvement of the basic amino acid transport system y+ in the translocation of peptides into the cell, experiments were performed in the presence of excess extracellular L-arginine (10 mM).
After 30 minutes of incubation with the peptides, cells were washed 3 times with phosphate-buffered saline (PBS), fixed for 5 minutes at −20° C. in ethanol/acetone, washed 3 times in PBS, incubated for 30 minutes with a peroxidase suppressor (ImmunoPure, Pierce, Rockford, Ill.) to block endogenous peroxidase activity and nonspecific binding, washed, and then incubated with 5 μg/ml of horseradish peroxidase (HRP) conjugated strepavidin (Pierce, Rockford, Ill.) for 30 minutes. Cells were washed 3 times with PBS, and a substrate of HRP, DAB (Sigma, St. Louis, […].), was added to the cells. The reaction was terminated by washing in distilled water after a 60-second incubation with DAB. Cell preparations were observed by conventional light microscopy (see FIG. 1). This experimental protocol was repeated 3 times.

vein graft segments = assay: Ex vivo NOx production from vein graft harvested 3 days after surgery; assay type: in vivo, New Zealand white rabbits; conditions: A23187, 10.0 μM
Experimental: Vein grafts were harvested 3 days after surgery, as described in Example 7. Vein graft segments were incubated in 1 me of Hanks' buffered saline solution (HBSS, Irvine Scientific) containing Ca^2+ (1.0 mM) and L-arginine (100 μM, Sigma) at 37° C. for 2 hours. NOx (nitrate and nitrite) production was measured either in the absence (basal) or presence (stimulated) of calcium ionophore (A23187, 10.0 μM, Sigma). Samples of the medium (80 μL) were collected, and NOx measurement was performed using the Griess reaction facilitated by a commercial calorimetric assay (Cayman Chemical).

## nona-L-arginine [R9]
cytokine-stimulated VSMC; pretreatment 30 minutes, then IFN-γ and LPS, 100 μM extracellular L-arginine
  NO production: dose-dependent increases in NO production at doses as low as 10 μM
cytokine-stimulated VSMC; pretreatment 30 minutes, vs. vehicle treated cytokine-stimulated cells
  degree of enhancement of NO production: 44±5.2%
[1]; 60 and 90 days
  GCAD compared to PBS controls: significant reduction in GCAD
[1]; 60 days
  % affected vessels: 6.5 ± 6.9%
  % luminal narrowing: 3.2 ± 3.8%
  I/M ratio: .03 ± .04
[1]; 90 days
  % affected vessels: 4.9 ± 7.1%
  % luminal narrowing: 1.6 ± 3.3%
  I/M ratio: .01 ± .02
[1]; biotinylated oligomer infused
  transfection of coronary vessels: marked transfection of the intima and media of coronary vessels

## biotin-labeled heptaarginine [bR7]
[2]; 10.0 μM, 4° C.
  speed or efficacy of translocation into vascular tissue at 4° C.: no apparent reduction in the speed or efficacy
[2]; 10.0 μM, 30 minutes of intraluminal exposure
  biotin signals after intraluminal instillation: biotin signals were detected throughout the vessel, including the adventitial cells
[2]; carotid artery, 10.0 μM, 30 minutes
  biotin signal in vascular cells: a distinct biotin signal was observed in virtually all intimal cells, medial cells, and adventitial cells
[2]; day 5 after exposure (10.0 μM), serum containing medium
  biotin staining by day 5: No significant positive staining
[3]; 0.1 μM
  internalized biotin: internalized biotin was observed in the cytoplasm of all EC
[3]; 10.0 μM for 30 minutes
  internalized biotin: internalized biotin was detected not only in the cytoplasm but also in the nucleus of virtually all exposed endothelial cells
[4]; 0.1 μM
  internalized biotin signal (staining): internalized biotin was observed in all VSMCs
[4]; 10 μM, 37° C.
  internalized biotin signal (staining): very intense staining, not only in the cytoplasm, but also in the nucleus of all VSMC
[4]; 4° C.
  efficacy of translocation at 4° C.: no apparent reduction was observed in the efficacy of bR7 translocation
[4]; cells exposed to 1% sodium azide for 30 minutes prior to incubation
  cytoplasmic and nuclear staining after sodium azide: neither cytoplasmic nor nuclear staining was observed
[4]; free L-arginine up to 10 mM added
  translocation in presence of free L-arginine: Nor was translocation of bR7 inhibited

## hepta-L-lysine [K7, reference compound]
cytokine-stimulated VSMC; 100 μM, 30 minutes
  NO production: did not increase the NO production

## CNC(=N)NCCC[C@H](N)C(=O)O [L-NMMA, N^G-monomethyl L-arginine, reference compound]
cytokine-stimulated VSMC; L-NMMA (1 mM) added to R7 treated cells
  enhancement of NO production in R7 treated cells after NO synthase inhibitor: abolished

## CNc1ccc2oc(C[C@H]3O[C@@]4(CC[C@H]3C)O[C@H]([C@H](C)C(=O)c3ccc[nH]3)[C@H](C)C[C@H]4C)nc2c1C(=O)O [Calcium ionophore, reference compound]
Vein graft segments
  NOx production by the vein grafts on calcium ionophore stimulation: did not significantly affect the NOx production
